According to publication PMC5318439, “The Novel Toll-Like Receptor 2 Agonist SUP3 Enhances Antigen Presentation and T Cell Activation by Dendritic Cells” (Frontiers in Immunology, 2017):
Where a SMILES comes first, the peptide text is derived from it. The star is where a group is joined. X1 = CCCCCCCCCCCCCCNC(=O)OC[C@H](C*)OC(=O)NCCCCCCCCCCCCCC; Palmitoyl = CCCCCCCCCCCCCCCC(=O)*

What was measured:
[1] = test system: OVA-expressing B16 melanoma cells (B16-OVA); assay: B16-OVA melanoma lung metastasis tumor model after immunization; assay type: in vivo, mice; details: immunized OCS + 2 nmol per mouse for 30 days, B16-OVA 5 × 10^5 cells i.v., 16 days after challenge; vs OCS alone or OCS with Pam3
Excerpt: Tumor model was applied as previously described with some modifications ([42]). Briefly, mice were immunized by OCS alone, OCS with Pam3 (2 nmol per mouse), or OCS with SUP3 (2 nmol per mouse) for 30 days. Then mice were i.v. injected with OVA-expressing B16 melanoma cells (B16-OVA) (5 × 10^5 cells per mouse). After 16 days, the numbers of metastatic tumors in lung were counted.
Figure 2 SUP3 induced more vigorous cytotoxic T lymphocytes (CTLs) responses than Pam3CSK4 without excessive production of inflammatory cytokines in vivo. […] The percentages of pentamer positive cells (CD19^− CD3^+ CD8^+ SIINFEKL/H-2Kb-Pentamer^+) in spleens, i.e., the OVA-specific CD8^+ T cells, were determined by flow cytometry (A) and the statistic calculation is presented in (B). […] (C,D) Mice were immunized as in (A) for 30 days, then inoculated with OVA-expressing B16 melanoma cells (B16-OVA) (5 × 10^5 cells per mouse) by i.v. injection and analyzed for metastatic tumor formation in the lung 16 days after inoculation. […] (E) Mice were i.v. injected with SUP3 (2 nmol per mouse), Pam3 (2 nmol per mouse), or lipopolysaccharide (LPS) (1 µg per mouse) for 1 h, the serum was collected, and the levels of different cytokines were determined by ELISA. “n.d.” indicates “not detected.” *p < 0.05, **p < 0.01. […]

NF-κB and MAPK pathways = assay: Immunoblot of NF-κB and MAPK signaling in CD8+ cDCs; assay type: cell-based, mice; details: 200 nM, 0–120 min, western blot
Protocol: Immunoblot assay was performed as described elsewhere ([40], [41]). Briefly, whole-cell lysates were prepared by direct lysis in SDS loading buffer. Lysates were separated by 10% SDSPAGE and transferred to a polyvinylidene fluoride membrane (Millipore IPVH00010) for probing with antibody. Antibodies against phosphorylated NF-κB p65 (p-p65) (Ser 536) (Clone 93H1), p-SAPK/JNK (Thr183/Tyr185) (Clone 81E11), SAPK/JNK (Clone 56G8), p-p38 (Thr180/Tyr182) (Clone 3D7), and p38 (Clone D13E1) were purchased from Cell Signaling Technology. Antibodies against IκBα ([…]), p-ERK (Clone E-4), and ERK (Clone K-23) were purchased from Santa Cruz Biotech. The chemiluminescence signals were captured by Amersham Image 600 system (GE Healthcare).
Figure 4 SUP3 stimulated maturation of CD8^+ conventional dendritic cells (cDCs). (A) Purified CD8^+ cDCs were treated with SUP3 (200 nM) or Pam3 (200 nM) in the presence of granulocyte-macrophage colony-stimulating factor (GM-CSF) (20 ng/mL) for 24 h. The surface expression of costimulatory and major histocompatibility complex (MHC) molecules were then analyzed by flow cytometry. Representative data from three independent experiments were shown. […] Splenic CD8^+ cDCs were enriched, and surface expression of CD40 and CD86 was analyzed by flow cytometry. […] Supernatants were harvested 24 and 48 h post-stimulation, and cytokines were measured by ELISA. […]

[2] = Antigen deposition (OVA-AF647) in draining lymph nodes; assay type: in vivo, mice; details: OVA-AF647 25 µg per mouse s.c. with 2 nmol per mouse, 24 h; vs OVA alone or OVA with Pam3
Protocol: Wild-type mice were s.c. injected with OVA-AF647 alone (25 µg per mouse; Molecular Probes O-34784), or mixtures of OVA-AF647 with SUP3 (2 nmol per mouse) or Pam3 (2 nmol per mouse) at groin. Inguinal lymph nodes were isolated 24 h post-injection, and then immune cells were analyzed by flow cytometry.
Figure 6 SUP3 enhanced antigen deposition in draining lymph nodes. Mice were immunized at groin by s.c. injection of ovalbumin (OVA)-Alexa Fluor 647 (AF647) (25 µg per mouse) with or without SUP3 (2 nmol per mouse) or Pam3 (2 nmol per mouse) for 24 h. Inguinal lymph nodes were isolated, and immune cells were analyzed for levels of AF647 fluorescence by flow cytometry (A). The number of OVA-AF647 positive cells was calculated in (B). Representative data were from two independent experiments with three mice in each group.

With `CCCCCCCCCCCCCCCC(=O)N[C@@H](CSC[C@@H](COC(=O)NCCCCCCCCCCCCCC)OC(=O)NCCCCCCCCCCCCCC)C(=O)NCC(=O)N[C@@H](CCCCN)C(=O)N[C@@H](CCCCN)C(=O)N[C@@H](CCCCN)C(=O)O` [SUP3, (2S,5S,8S,14R,18R)-2,5,8-tris(4-aminobutyl)-4,7,10,13,21-pentaoxo-14-palmitamido-18-((tetradecylcarbamoyl)oxy)-20-oxa-16-thia-3,6,9,12,22-pentaazahexatriacontan-1-oic acid] (Palmitoyl-C(X1)GKKK-OH) as the compound, how does the “number of metastatic tumors in the lungs” value [1] read?
The value was “markedly reduced number of tumors in the lungs”.

What about the “NF-κB and MAPK signaling (p-p65, IκBα, p-ERK, p-JNK, p-p38) in CD8+ cDCs” value (NF-κB and MAPK pathways) of the same compound?
The value was “induced phosphorylation of p65 and degradation of IκBα and enhanced phosphorylation of ERK, JNK, and p38”.

And the “numbers of antigen-containing CD8+ cDCs, CD11b+ cDCs, macrophages, and monocytes in inguinal lymph nodes” value [2]?
Its value is “increased numbers”.
